Measurements reported in the NIST ThermoML archive (doi:10.1021/je700339f).
± gives the expanded uncertainty stated by the source.

Assay: xn = mol fraction of the nth substance listed
Conditions: 298 K, Liquid

ClCCCCCCCl [1,6-dichlorohexane] + CC(=O)N(C)C
mass density [kg/m3]
Conditions	x2 = 0.1002	x2 = 0.1985	x2 = 0.3002	x2 = 0.404	x2 = 0.4943	x2 = 0.6007	x2 = 0.7006	x2 = 0.8012	x2 = 0.8994
100 kPa	1054.5 ± 2.9	1045.2 ± 3	1034.5 ± 3	1023.1 ± 3.1	1012.3 ± 3.2	998.8 ± 3.3	985.3 ± 3.5	970.4 ± 3.7	954.6 ± 3.8
500 kPa	1054.7 ± 2.9	1045.5 ± 3	1034.8 ± 3	1023.4 ± 3.1	1012.5 ± 3.2	999 ± 3.3	985.6 ± 3.5	970.7 ± 3.7	954.8 ± 3.8
1000 kPa	1055.1 ± 2.9	1045.9 ± 3	1035.2 ± 3.1	1023.7 ± 3.1	1012.9 ± 3.3	999.3 ± 3.3	985.9 ± 3.5	971 ± 3.7	955.1 ± 3.8
1500 kPa	1055.5 ± 2.9	1046.2 ± 3	1035.6 ± 3.1	1024.1 ± 3.1	1013.3 ± 3.3	999.6 ± 3.3	986.2 ± 3.5	971.3 ± 3.7	955.4 ± 3.8
2000 kPa	1055.8 ± 2.9	1046.6 ± 3	1035.9 ± 3.1	1024.4 ± 3.1	1013.6 ± 3.3	1000 ± 3.3	986.5 ± 3.5	971.6 ± 3.7	955.7 ± 3.8
2500 kPa	1056.2 ± 2.9	1046.9 ± 3	1036.2 ± 3.1	1024.8 ± 3.1	1013.9 ± 3.3	1000.3 ± 3.3	987 ± 3.5	972 ± 3.7	956.1 ± 3.8
2900 kPa	–	–	–	–	1014.3 ± 3.3	–	–	–	–
3000 kPa	1056.5 ± 2.9	1047.3 ± 3	1036.6 ± 3.1	1025.1 ± 3.1	–	1000.6 ± 3.3	987.2 ± 3.5	972.3 ± 3.7	956.4 ± 3.8
3500 kPa	1056.9 ± 3	1047.6 ± 3	1036.8 ± 3.1	1025.4 ± 3.1	1014.6 ± 3.3	1001 ± 3.3	987.6 ± 3.5	972.6 ± 3.7	956.6 ± 3.8
4000 kPa	1057.2 ± 3	1047.9 ± 3	1037.2 ± 3.1	1025.7 ± 3.1	1014.9 ± 3.2	1001.4 ± 3.3	987.9 ± 3.5	972.9 ± 3.7	957 ± 3.9
4500 kPa	1057.6 ± 3	1048.3 ± 3	1037.5 ± 3.1	1026.1 ± 3.1	1015.3 ± 3.3	1001.6 ± 3.3	988.2 ± 3.5	973.2 ± 3.7	957.2 ± 3.8
5000 kPa	1057.9 ± 3	1048.6 ± 3	1037.9 ± 3.1	1026.5 ± 3.1	1015.6 ± 3.3	1002 ± 3.3	988.5 ± 3.5	973.5 ± 3.7	957.6 ± 3.8
5500 kPa	1058.2 ± 3	1049 ± 3	1038.2 ± 3.1	1026.8 ± 3.1	1015.9 ± 3.3	1002.3 ± 3.3	988.9 ± 3.5	973.8 ± 3.7	957.9 ± 3.8
6000 kPa	1058.6 ± 3	1049.3 ± 3	1038.5 ± 3.1	1027.1 ± 3.1	1016.3 ± 3.3	1002.6 ± 3.4	989.1 ± 3.5	974.2 ± 3.7	958.2 ± 3.9
6500 kPa	1058.9 ± 3	1049.6 ± 3	1038.9 ± 3.1	1027.4 ± 3.1	1016.6 ± 3.3	1002.9 ± 3.3	989.5 ± 3.5	974.4 ± 3.7	958.5 ± 3.8
7000 kPa	1059.3 ± 3	1049.9 ± 3	1039.2 ± 3.1	1027.7 ± 3.1	1016.9 ± 3.3	1003.3 ± 3.4	989.7 ± 3.5	974.7 ± 3.7	958.8 ± 3.8
7500 kPa	1059.6 ± 3	1050.2 ± 3	1039.5 ± 3.1	1028.1 ± 3.1	1017.2 ± 3.3	1003.6 ± 3.3	990.1 ± 3.5	975 ± 3.7	959 ± 3.8
8000 kPa	1060 ± 3	1050.6 ± 3	1039.9 ± 3.1	1028.4 ± 3.2	1017.4 ± 3.3	1003.9 ± 3.3	990.4 ± 3.5	975.4 ± 3.7	959.4 ± 3.9
8500 kPa	1060.3 ± 3	1050.9 ± 3	1040.2 ± 3.1	1028.7 ± 3.1	1017.8 ± 3.3	1004.2 ± 3.4	990.6 ± 3.5	975.7 ± 3.7	959.7 ± 3.9
9000 kPa	1060.6 ± 3	1051.2 ± 3	1040.6 ± 3.1	1029.1 ± 3.2	1018.1 ± 3.3	1004.5 ± 3.3	991 ± 3.5	976 ± 3.7	960 ± 3.9
9500 kPa	1061 ± 3	1051.6 ± 3	1040.9 ± 3.1	1029.4 ± 3.2	1018.5 ± 3.3	1004.8 ± 3.4	991.2 ± 3.5	976.3 ± 3.7	960.3 ± 3.9
10000 kPa	1061.4 ± 3	1052 ± 3	1041.3 ± 3.1	1029.8 ± 3.2	1018.9 ± 3.3	1005.2 ± 3.4	991.6 ± 3.5	976.7 ± 3.7	960.6 ± 3.9
10500 kPa	1061.7 ± 3	1052.3 ± 3	1041.6 ± 3.1	1030.2 ± 3.2	1019.2 ± 3.3	1005.5 ± 3.4	992 ± 3.5	977 ± 3.8	960.9 ± 3.9
11000 kPa	1062 ± 3	1052.6 ± 3	1041.9 ± 3.1	1030.4 ± 3.2	1019.5 ± 3.3	1005.8 ± 3.4	992.3 ± 3.9	–	961.2 ± 3.2
11400 kPa	–	–	–	–	–	–	–	–	961.5 ± 3.9
11500 kPa	1062.3 ± 3	1052.9 ± 3	1042.2 ± 3.1	1030.7 ± 3.1	1019.9 ± 3.3	1006.1 ± 3.4	992.6 ± 3.5	977.6 ± 3.7	–
12000 kPa	1062.7 ± 3	1053.3 ± 3	1042.5 ± 3.1	1031 ± 3.1	1020.2 ± 3.3	1006.5 ± 3.4	992.9 ± 3.5	977.9 ± 3.7	961.8 ± 3.9
12500 kPa	1063 ± 3	1053.6 ± 3	1042.9 ± 3.1	1031.4 ± 3.2	1020.5 ± 3.3	1006.7 ± 3.4	993.2 ± 3.5	978.2 ± 3.7	962.1 ± 3.9
13000 kPa	1063.4 ± 3	1054 ± 3	1043.2 ± 3.1	1031.7 ± 3.2	1020.8 ± 3.3	1007 ± 3.4	993.5 ± 3.5	978.5 ± 3.7	962.4 ± 3.9
13500 kPa	1063.7 ± 3	1054.3 ± 3.1	1043.5 ± 3.1	1032 ± 3.2	1021.1 ± 3.3	1007.4 ± 3.4	993.8 ± 3.5	978.7 ± 3.8	962.6 ± 3.9
14000 kPa	1063.9 ± 3	1054.7 ± 3	1043.8 ± 3.1	1032.4 ± 3.2	1021.4 ± 3.3	1007.6 ± 3.4	994.1 ± 3.5	979 ± 3.8	963 ± 3.9
14500 kPa	1064.3 ± 3	1055 ± 3	1044.2 ± 3.1	1032.6 ± 3.2	1021.7 ± 3.3	1008 ± 3.4	994.4 ± 3.5	979.4 ± 3.8	963.2 ± 3.9
15000 kPa	1064.6 ± 3	1055.3 ± 3.1	1044.5 ± 3.1	1032.9 ± 3.2	1022 ± 3.3	1008.2 ± 3.4	994.7 ± 3.5	979.6 ± 3.8	963.4 ± 3.9
15500 kPa	1064.9 ± 3	1055.6 ± 3.1	1044.8 ± 3.1	1033.3 ± 3.2	1022.3 ± 3.3	1008.6 ± 3.4	995 ± 3.5	980 ± 3.8	963.8 ± 3.9
16000 kPa	1065.3 ± 3	1055.9 ± 3.1	1045.1 ± 3.1	1033.6 ± 3.2	1022.6 ± 3.3	1009 ± 3.4	995.3 ± 3.5	980.2 ± 3.8	964 ± 3.9
16400 kPa	–	–	–	–	–	–	–	980.5 ± 3.8	–
16500 kPa	1065.6 ± 3.1	1056.2 ± 3.1	1045.3 ± 3.1	1033.9 ± 3.2	1022.9 ± 3.3	1009.3 ± 3.4	995.6 ± 3.5	–	964.3 ± 2.8
17000 kPa	1065.9 ± 3.1	1056.5 ± 3.1	1045.7 ± 3.1	1034.2 ± 3.2	1023.2 ± 3.3	1009.6 ± 3.4	995.9 ± 3.5	980.8 ± 3.8	964.6 ± 3.9
17400 kPa	–	–	–	–	–	–	996.2 ± 3.5	–	–
17500 kPa	1066.2 ± 3.1	1056.8 ± 3.1	1046 ± 3.1	1034.6 ± 3.2	1023.5 ± 3.3	1009.9 ± 3.4	–	981.1 ± 3.8	964.9 ± 3.9
18000 kPa	1066.5 ± 3.1	1057.1 ± 3.1	1046.3 ± 3.1	1034.9 ± 3.2	1023.8 ± 3.3	1010.2 ± 3.4	996.5 ± 3.5	981.4 ± 3.8	965.2 ± 3.9
18500 kPa	1066.8 ± 3.1	1057.5 ± 3.1	1046.7 ± 3.1	1035.2 ± 3.2	1024 ± 3.3	1010.5 ± 3.4	996.9 ± 3.5	981.6 ± 3.8	965.4 ± 3.9
19000 kPa	1067.2 ± 3.1	1057.8 ± 3.1	1047 ± 3.1	1035.5 ± 3.2	1024.3 ± 3.3	1010.9 ± 3.4	997.1 ± 3.5	982 ± 3.8	965.7 ± 3.9
19500 kPa	1067.5 ± 3.1	1058.1 ± 3.1	1047.3 ± 3.1	1035.9 ± 3.2	1024.7 ± 3.3	1011.2 ± 3.4	997.4 ± 3.5	982.3 ± 3.8	966 ± 3.9
19900 kPa	–	–	–	–	–	–	997.6 ± 3.5	–	–
20000 kPa	1067.9 ± 3.1	1058.4 ± 3.1	1047.7 ± 3.1	1036.2 ± 3.2	1025 ± 3.3	1011.5 ± 3.4	–	982.6 ± 3.8	966.4 ± 3.9
